One assay has as its system HeLa cells. As to the kind of experiment: MTS cell proliferation and/or cytotoxicity assay. The assay is classed as cell-based, Human. Particulars: Homo sapiens, HeLa, 72 h, concentration at which 50% of antiproliferative cell response is seen; 3 days incubation; read-out: MTS Data Hella. The procedure, abridged:
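HeLa cells seeded at 4,500 cells/well, exposed to compounds from day 1 for 3 days at 37 °C, 5% CO2. Viability by MTS/PMS (20:1) with 4 h incubation, absorbance at 490 nm. Values are concentrations giving 50% antiproliferative response.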
`CN(C)CCCCNC(=O)c1cn2c3c(c(N4CC[C@@H](NC(=O)CCN5CCCC5)C4)c(F)cc3c1=O)Oc1cc3c(cc1-2)oc1ccccc13` [compound 510]: the IC50 was 3100 nM.
The same measure, in the same setting: as for `O=C(NCCN1CCCC1)c1cn2c3c(c(N4CCC(c5cnccn5)C4)c(F)cc3c1=O)Oc1ccccc1-2` (stereo not shown) [compound 32], the figure is 600 nM; as for `CN1CCCC1CCNc1c(F)cc2c(=O)c(C(=O)NCCN3CCOCC3)cn3c4cc5c(cc4oc1c23)c(=O)c1ccccc15` (stereo not shown) [compound 517], 2200 nM.
With `CCN(C)CCCC(C)NC(=O)c1cn2c3c(c(NCCN4CCCC4)ccc3c1=O)Oc1cc3ccccc3cc1-2` (stereo not shown) [compound 543], the IC50 is 200 nM.
The same measure, in the same setting: for `CN(C)CCCCNC(=O)c1cn2c3c(c(N4CC[C@@H](NC(=O)CCN5CCN(C)CC5)C4)c(F)cc3c1=O)Oc1cc3c(cc1-2)oc1ccccc13` [compound 357] the value was 8600 nM.
Consider `O=C(NCCC1CCCN1)c1cn2c3c(c(NCCCN4CCOCC4)c(F)cc3c1=O)Oc1cc3c(cc1-2)oc1ccccc13` (stereo not shown) [compound 562], for which the IC50 turned out to be 850 nM.
On to `CN1CCCC1CCNC(=O)c1cn2c3c(c(N4CC[C@@H](NC(=O)CCN5CCCCC5)C4)c(F)cc3c1=O)Oc1cc3c(cc1-2)oc1ccccc13` (stereo partly shown) [compound 484], for which the IC50 came out at 3100 nM.
On to `CN1CCCC1CCNC(=O)c1cn2c3c(c(NC[C@H]4CCCO4)c(F)cc3c1=O)Oc1cc3ccccc3cc1-2` (stereo partly shown) [compound 34], for which the IC50 came to 280 nM.
`O=C(NCCN1CCCC1)c1cn2c3c(c(N4CCC(c5cnccn5)C4)ccc3c1=O)Oc1cc3ccccc3cc1-2` (stereo not shown) [compound 303]: the IC50 was 2100 nM.
For the molecule `O=C(NCCN1CCCC1)c1cn2c3cc4oc5cc([N+](=O)[O-])ccc5[nH]c4cc3oc3c(NCCN4CCCC4)c(F)cc(c1=O)c32` [compound 479], the IC50 came out at 7400 nM.
Turning to `CN(C)CCCCNc1c(F)cc2c(=O)c(C(=O)NCCN3CCOCC3)cn3c4cc5c(cc4oc1c23)c(=O)c1ccccc15` [compound 518], the IC50 came to 2200 nM.
Still for that read-out and setting: as for `CN(C)CCCCNC(=O)c1cn2c3c(c(N4CC[C@@H](N)C4)c(F)cc3c1=O)Oc1ccccc1-2` [compound 106], the figure is 2500 nM; as for `CN1CCCC1CCNC(=O)c1cn2c3c(c(N4CC[C@H](N)C4)c(F)cc3c1=O)Oc1ccccc1-2` (stereo partly shown) [compound 36], 160 nM.
On the same count and under the same terms, for `CC(C)NCCCNC(=O)c1cn2c3c(c(N4CCC(NC(=O)OC(C)(C)C)C4)c(F)cc3c1=O)Oc1cc3ccccc3cc1-2` (stereo not shown) [compound 312] the value was 1900 nM; for `CN1CCCC1CCNC(=O)c1cn2c3c(c(NCCN4CCCC4)c(F)cc3c1=O)Oc1cc3c(cc1-2)oc1ccccc13` (stereo not shown) [compound 306], 3200 nM; for `CN1CCCC1CCNC(=O)c1cn2c3c(c(NC4CN5CCC4CC5)c(F)cc3c1=O)Oc1cc3ccccc3cc1-2` (stereo not shown) [compound 486], 390 nM.
On to `O=C(NCCCN1CCOCC1)c1cn2c3c(c(N4CC5CCCNC5C4)c(F)cc3c1=O)Oc1cc3ccccc3cc1-2` (stereo not shown) [compound 547], for which the IC50 is 100 nM.
On the same count and under the same terms, as for `CN1CCCC1CCNC(=O)c1cn2c3c(c(N4CC[C@@H](NC(=O)CCN5CCCC5)C4)c(F)cc3c1=O)Oc1cc3c(cc1-2)oc1ccccc13` (stereo partly shown) [compound 483], the figure is 3200 nM; as for `CN1CCCC1CCNC(=O)c1cn2c3c(c(NCC(O)c4ccccc4)c(F)cc3c1=O)Oc1cc3ccccc3cc1-2` (stereo not shown) [compound 392], 190 nM.
As for `O=C(NCCN1CCCC1)c1cn2c3c(c(NCCN4CCCC4)c(F)cc3c1=O)Oc1cc3c(cc1-2)oc1ccccc13` [compound 477], the IC50 was determined as 2100 nM.
Take `O=C(NCCN1CCCC1)c1cn2c3cc4c(=O)c5ccccc5c(=O)c4cc3oc3c(NCCN4CCCC4)c(F)cc(c1=O)c32` [compound 568]: the IC50 was determined as 4100 nM.
For `CN(C)CCCCNc1c(F)cc2c(=O)c(C(=O)NCCC3CCCN3C)cn3c2c1Oc1cc2c(cc1-3)oc1ccccc12` (stereo not shown) [compound 366], the IC50 came out at 3700 nM.
`CC1(C)CC(NC(=O)c2cn3c4c(c(N5CCC(N)C5)c(F)cc4c2=O)Oc2cc4ccccc4cc2-3)CC(C)(C)N1` (stereo not shown) [compound 539]: the IC50 amounted to 280 nM.

The target of another assay is c-Myc template DNA (c-myc quadruplex). The assay can be described thus: Quadruplex binding / stop assay (Taq polymerase arrest, capillary electrophoresis). Particulars: read-out: Stop Data c-Myc μM; concentration at which 50% of the DNA was arrested (arrested:full-length 1:1).
As to `CN(C)CCCCNC(=O)c1cn2c3c(c(N4CC[C@@H](NC(=O)CCN5CCCC5)C4)c(F)cc3c1=O)Oc1cc3c(cc1-2)oc1ccccc13` [compound 510], the IC50 worked out at 0.375 µM.
`O=C(NCCN1CCCC1)c1cn2c3c(c(N4CCC(c5cnccn5)C4)c(F)cc3c1=O)Oc1ccccc1-2` (stereo not shown) [compound 32]: the IC50 is 3 µM.
The same measure, in the same setting: as for `CN1CCCC1CCNc1c(F)cc2c(=O)c(C(=O)NCCN3CCOCC3)cn3c4cc5c(cc4oc1c23)c(=O)c1ccccc15` (stereo not shown) [compound 517], the figure is 0.375 µM; as for `CCN(C)CCCC(C)NC(=O)c1cn2c3c(c(NCCN4CCCC4)ccc3c1=O)Oc1cc3ccccc3cc1-2` (stereo not shown) [compound 543], 0.375 µM; as for `CN(C)CCCCNC(=O)c1cn2c3c(c(N4CC[C@@H](NC(=O)CCN5CCN(C)CC5)C4)c(F)cc3c1=O)Oc1cc3c(cc1-2)oc1ccccc13` [compound 357], 0.75 µM.
Turning to `O=C(NCCC1CCCN1)c1cn2c3c(c(NCCCN4CCOCC4)c(F)cc3c1=O)Oc1cc3c(cc1-2)oc1ccccc13` (stereo not shown) [compound 562], the IC50 turned out to be 0.32 µM.
On to `CN1CCCC1CCNC(=O)c1cn2c3c(c(N4CC[C@@H](NC(=O)CCN5CCCCC5)C4)c(F)cc3c1=O)Oc1cc3c(cc1-2)oc1ccccc13` (stereo partly shown) [compound 484], for which the IC50 worked out at 0.5 µM.
Take `CN1CCCC1CCNC(=O)c1cn2c3c(c(NC[C@H]4CCCO4)c(F)cc3c1=O)Oc1cc3ccccc3cc1-2` (stereo partly shown) [compound 34]: the IC50 was determined as 3 µM.
Consider `O=C(NCCN1CCCC1)c1cn2c3c(c(N4CCC(c5cnccn5)C4)ccc3c1=O)Oc1cc3ccccc3cc1-2` (stereo not shown) [compound 303], for which the IC50 was found to be 1.5 µM.
`O=C(NCCN1CCCC1)c1cn2c3cc4oc5cc([N+](=O)[O-])ccc5[nH]c4cc3oc3c(NCCN4CCCC4)c(F)cc(c1=O)c32` [compound 479]: the IC50 was determined as 0.5 µM.
Take `CN(C)CCCCNc1c(F)cc2c(=O)c(C(=O)NCCN3CCOCC3)cn3c4cc5c(cc4oc1c23)c(=O)c1ccccc15` [compound 518]: the IC50 was determined as 0.375 µM.
As for `CN(C)CCCCNC(=O)c1cn2c3c(c(N4CC[C@@H](N)C4)c(F)cc3c1=O)Oc1ccccc1-2` [compound 106], the IC50 was 1.75 µM.
As for `CN1CCCC1CCNC(=O)c1cn2c3c(c(N4CC[C@H](N)C4)c(F)cc3c1=O)Oc1ccccc1-2` (stereo partly shown) [compound 36], the IC50 was found to be 3 µM.
Regarding `CC(C)NCCCNC(=O)c1cn2c3c(c(N4CCC(NC(=O)OC(C)(C)C)C4)c(F)cc3c1=O)Oc1cc3ccccc3cc1-2` (stereo not shown) [compound 312], the IC50 amounted to 1 µM.
Consider `CN1CCCC1CCNC(=O)c1cn2c3c(c(NCCN4CCCC4)c(F)cc3c1=O)Oc1cc3c(cc1-2)oc1ccccc13` (stereo not shown) [compound 306], for which the IC50 was 1 µM.
Same read-out and setting: as for `CN1CCCC1CCNC(=O)c1cn2c3c(c(NC4CN5CCC4CC5)c(F)cc3c1=O)Oc1cc3ccccc3cc1-2` (stereo not shown) [compound 486], the figure is 0.5 µM.
Take `O=C(NCCCN1CCOCC1)c1cn2c3c(c(N4CC5CCCNC5C4)c(F)cc3c1=O)Oc1cc3ccccc3cc1-2` (stereo not shown) [compound 547]: the IC50 turned out to be 0.375 µM.
As to `CN1CCCC1CCNC(=O)c1cn2c3c(c(N4CC[C@@H](NC(=O)CCN5CCCC5)C4)c(F)cc3c1=O)Oc1cc3c(cc1-2)oc1ccccc13` (stereo partly shown) [compound 483], the IC50 came out at 0.5 µM.
For `CN1CCCC1CCNC(=O)c1cn2c3c(c(NCC(O)c4ccccc4)c(F)cc3c1=O)Oc1cc3ccccc3cc1-2` (stereo not shown) [compound 392], the IC50 amounted to 0.75 µM.
Turning to `O=C(NCCN1CCCC1)c1cn2c3c(c(NCCN4CCCC4)c(F)cc3c1=O)Oc1cc3c(cc1-2)oc1ccccc13` [compound 477], the IC50 stood at 0.55 µM.
`O=C(NCCN1CCCC1)c1cn2c3cc4c(=O)c5ccccc5c(=O)c4cc3oc3c(NCCN4CCCC4)c(F)cc(c1=O)c32` [compound 568]: the IC50 is 0.22 µM.
For the molecule `CN(C)CCCCNc1c(F)cc2c(=O)c(C(=O)NCCC3CCCN3C)cn3c2c1Oc1cc2c(cc1-3)oc1ccccc12` (stereo not shown) [compound 366], the IC50 turned out to be 0.75 µM.
For `CC1(C)CC(NC(=O)c2cn3c4c(c(N5CCC(N)C5)c(F)cc4c2=O)Oc2cc4ccccc4cc2-3)CC(C)(C)N1` (stereo not shown) [compound 539], the IC50 was 0.375 µM.

The values above are taken from US7507727B2, “Substituted quinobenzoxazine analogs and methods of using thereof” (Cylene Pharmaceuticals, Inc., priority 2003, dated 2009).
